Measurements published in patent US6703387B2, “Inhibitors of HPV E1 helicase enzyme” (Hoffmann-La Roche Inc., priority 2000, dated 2004).
Counter-ions that a name gives are not always drawn.

Target: T1, HPV(11) E1 helicase enzyme (MBP fusion protein), ATPase activity (Human papillomavirus 11, UniProt P04014)
T1 construct: made in house; host or cells: SF9 insect cells, baculovirus expression system
Test: E1 ATPase activity assay ([γ33P]ATP hydrolysis, charcoal separation)
Format: biochemical
Conditions: 20 μM ATP, 1 hour at 37° C., pH 7.0, read-out: Activity (IC50, concentration of test compound which inhibits enzyme activity by 50%)
Description: For assaying E1 ATPase activity the HPV E1 enzyme has been prepared and purified as follows:
The HPV(11) E1 used in this assay is expressed as a maltose binding protein (MBP) fusion protein from SF9 cells using a baculovirus expression system. Frozen pellets of these cells are thawed by adding the pellet directly into a buffer at 4 OC containing 50 mM Tris-HCl pH 7.5, 20 mM dithiothreitol (DTT), 1 mM EDTA, 600 mM NaCl, 20% glycerol and 3 “Complete” protease inhibitor tablets/50 ml (Boehringer Mannheim cat.no.1 697 498). The cell suspension is then sonicated for 3×10 seconds before centrifuging at 18000 rpm for 30 minutes to remove the cell debris. The clarified extract is then passed down a DE52 ion exchange column which is washed with a buffer containing 50 mM Tris-HCl pH 7.5, 2 mM DTT, 1 mM EDTA, 600 mM NaCl and 20% glycerol. The column flow through plus the first 10 mls of wash buffer are then passed down an amylose affinity column which binds MBP tagged proteins. This column is washed with 3 column bed volumes of the wash buffer before being eluted with wash buffer containing 10 mM maltose. The eluted protein peak containing purified HPV(11) E1 is then dialysed overnight against 2 L of buffer containing 20 mM Tris-HCl pH 7.5, 2 mM DTT, 20 mM NaCl and 20% glycerol. The dialyzed material is used in the assay.
E1 ATPase activity can be measured as follows:
The standard reaction contains 50 mM MOPs KOH pH 7.0, 500 μM MgCl2, 20 μM ATP, 50 mM NaCl, 40 μl of a suitably diluted enzyme extract and 10 μl of inhibitor in a final volume of 100 μl. The ATP contains 0.1 μCi [γ^33P]ATP per reaction. The enzyme diluent contains 50 mM MOPs KOH pH7.0 and 1 mg/ml BSA. The inhibitor is diluted to give a range of concentrations in neat DMSO. Reaction tubes are incubated for 1 hour at 37° C. (producing linear kinetics) after which the reaction is terminated by heat inactivation at 85° C. for 2 minutes. 500 μl 15% activated charcoal in PBS is then added to each reaction. The activated charcoal used is 100-400 mesh untreated powder (Sigma cat No C-5260); prior to use in the assay this is washed in PBS several times and allowed to settle out under gravity, any fine particles still in suspension being decanted off after each wash. The reactions are left on ice for 1 hour after which the charcoal is pelleted out by centrifugation at 14000 rpm for 10 minutes. The charcoal pellet contains unconverted [γ^33P]ATP, whilst any free inorganic ^33P, the reaction product, will remain in the supernatant. The amount of radioactivity present in 300 μl of supernatant is then measured by scintillation spectrophotometry.
The results can be calculated as follows:
The degree of inhibition at each inhibitor concentration is expressed as a percentage of the control reaction (100%) after subtracting a measured blank value, which represents the amount of free inorganic ^33P present in a reaction containing heat inactivated enzyme. An IC50 value (concentration of test compound which inhibits enzyme activity by 50%) is then calculated from a dose response curve of log10 inhibitor concentration against percentage of the control reaction.

T1 sequence (P04014 whole entry, the tested form may be a part): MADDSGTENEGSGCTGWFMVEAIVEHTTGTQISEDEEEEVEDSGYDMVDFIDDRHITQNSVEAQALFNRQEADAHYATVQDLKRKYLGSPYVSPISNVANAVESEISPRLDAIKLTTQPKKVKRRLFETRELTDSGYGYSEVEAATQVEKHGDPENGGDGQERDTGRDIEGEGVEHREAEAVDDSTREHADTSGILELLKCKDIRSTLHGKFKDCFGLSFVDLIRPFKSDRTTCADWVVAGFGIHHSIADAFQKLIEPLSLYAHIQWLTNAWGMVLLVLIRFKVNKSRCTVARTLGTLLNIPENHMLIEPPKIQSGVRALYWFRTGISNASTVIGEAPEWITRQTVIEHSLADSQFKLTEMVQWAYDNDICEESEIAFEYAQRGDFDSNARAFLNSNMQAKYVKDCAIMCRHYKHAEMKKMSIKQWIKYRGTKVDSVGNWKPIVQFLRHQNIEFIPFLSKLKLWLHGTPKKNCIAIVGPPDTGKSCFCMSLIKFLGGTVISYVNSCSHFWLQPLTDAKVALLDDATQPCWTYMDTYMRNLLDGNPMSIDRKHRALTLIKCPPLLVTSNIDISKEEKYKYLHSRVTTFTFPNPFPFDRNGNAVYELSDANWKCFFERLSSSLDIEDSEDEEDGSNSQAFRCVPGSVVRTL

SMILES | IC50 [µM]
CN1CCN=C(/C=C/c2cccc(Oc3ccccc3)c2)c2ccccc21 [Example 3, (E)-2,3-Dihydro-1-methyl-5-(3-phenoxystyryl)-1H-1,4-benzodiazepine dihydrochloride] | 2.4
CN1CCN=C(/C=C/c2cnccc2-c2cccc(Br)c2)c2ccccc21 [Example 6, (E)-5-[2-[4-(3-Bromophenyl)-3-pyridyl]vinyl]-2,3-dihydro-1-methyl-1H-1,4-benzo-diazepine dihydrochloride] | 4.2
CN1CCN=C(/C=C/c2ccc(Cl)c(Cl)c2)c2cccnc21 [Example 29, (E)-5-(3,4-Dichlorostyryl)-2,3-dihydro-1-methyl-1H-pyrido[2,3-e][1,4]diazepine hydrochloride (1:3)] | 3
FC(F)(F)c1cccc2c1NCCN=C2/C=C/c1ccc(Cl)c(Cl)c1 [Example 38, (E)-5-(3,4-Dichlorostyryl)-9-(trifluoromethyl)-2,3-dihydro-1H-1,4-benzodiazepine dihydrochloride] | 5.6
CN1CCN=C(/C=C/c2cnccc2-c2cccc(Br)c2)c2ccc(Br)cc21 [Example 42, (E)-8-Bromo-5-[2-[4-(3-bromophenyl)-3-pyridyl]vinyl]-2,3-dihydro-1-methyl-1H-1,4-benzodiazepine dihydrochloride] | 2.4
CN1CCN=C(/C=C/c2ccc(C#N)c(SCc3ccc(Cl)cc3)n2)c2ccc(Br)cc21 [Example 44, (E)-6-[2-(8-Bromo-2,3-dihydro-1-methyl-1H-1,4-benzodiazepin-5-yl)vinyl]-2-(4-chlorobenzylthio)-3-pyridinecarbonitrile dihydrochloride] | 2.5
Cc1cc(C)n(COc2cccc(/C=C/C3=NCCN(C)c4ccccc43)c2)n1 [Example 92, (E)-2,3-Dihydro-1-methyl-5-[3-[(3,5-dimethyl-1-pyrazolyl)methoxy]-styryl]-1H-1,4-benzodiazepine dihydrochloride] | 19
CN1CCN=C(/C=C/c2ccccc2Sc2ccc(Cl)cc2)c2ccccc21 [Example 121, (E)-5-[2-(4-Chlorophenylthio)styryl]-2,3-dihydro-1-methyl-1H-1,4-benzodiazepine dihydrochloride] | 1.6
CC(C)N1CCN=C(/C=C/c2ccc(Cl)c(Cl)c2)c2ccccc21 [Example 123, (E)-5-(3,4-Dichlorostyryl)-2,3-dihydro-1-isopropyl-1H-1,4-benzodiazepine dihydrochloride] | 2
O=C(c1ccccc1)N1CCN=C(/C=C/c2ccc(Cl)c(Cl)c2)c2ccccc21 [Example 125, (E)-1-Benzoyl-5-(3,4-dichlorostyryl)-2,3-dihydro-1H-1,4-benzodiazepine hydrochloride] | 5.6
COC(=O)c1ccc(CN2CCN=C(/C=C/c3ccc(Cl)c(Cl)c3)c3ccccc32)cc1 [Example 127, Methyl (E)4-[[5-(3,4-dichlorostyryl)-2,3-dihydro-1H-1,4-benzodiazepin-1-yl]methyl]benzoate dihydrochloride] | 2.2
O=C(O)c1ccc(CN2CCN=C(/C=C/c3ccc(Cl)c(Cl)c3)c3ccccc32)cc1 [Example 132, (E)-4-[[5-(3,4-dichlorostyryl)-2,3-dihydro-1H-1,4-benzodiazepin-1-yl]methyl]benzoic acid dihydrochloride] | 4.4
O=C(O)c1cccc(CN2CCN=C(/C=C/c3ccc(Cl)c(Cl)c3)c3ccccc32)c1 [Example 133, (E)-3-[[5-(3,4-Dichlorostyryl)-2,3-dihydro-1H-14-benzodiazepin-1-yl]methyl]benzoic]acid hydrochloride] | 3.1
O=C(O)CN1CCN=C(/C=C/c2ccc(Cl)c(Cl)c2)c2ccccc21 [Example 137, (E)-5-(3,4-Dichlorostyryl)-2,3-dihydro-1H-1,4-benzodiazepine-1-acetic acid] | 20
CCOC(=O)c1ncn2c1CN=C(/C=C/c1ccc(Cl)c(Cl)c1)c1ccccc1-2 [Example 139, Ethyl (E)-6-(3,4-dichlorostyryl)-4H-imidazo[1,5-a]benzodiazepine-3-carboxylate] | 20
CN1CCN=C(/C=C/c2ccc(Cl)c(Cl)c2)c2cc(NS(C)(=O)=O)ccc21 [Example 162, (E)-N-[5-(3,4-Dichlorostyryl)-2,3-dihydro-1-methyl-1H-1,4-benzodiazepin-7-yl]methanesulfonamide] | 8.6
CN1CCN=C(/C=C/c2ccc(Cl)c(Cl)c2)c2ccc(-c3cccs3)cc21 [Example 164, (E)-5-(3,4-Dichlorostyryl)-2,3-dihydro-1-methyl-8-(2-thienyl)-1H-1,4-benzodiazepine hydrochloride] | 12
